Reference: patent US20180214428A1, “3-(1H-INDOL-2-YL)-1H-PYRAZOLO[3,4-B]PYRIDINES AND THERAPEUTIC USES THEREOF” (Samumed, LLC, priority 2015, published 2018)

Legend:
[1] = test system: primary human mesenchymal stem cells (hMSCs); assay: Induction of chondrogenesis in primary human mesenchymal stem cells; assay type: cell-based; conditions: 6 days; for Emax / EC50: Homo sapiens, Mesenchymal stem cells, 144 h; for Emax: read-out: Max. Activity as % TGF-β3 activity; for EC50: concentration required to induce 50% levels of chondrogenesis vs TGF-β3, read-out: Conc (nM) of 50% TGF-β3 activity
Description: Representative compounds were screened using primary human mesenchymal stem cells (hMSCs) to determine their ability to induce chondrogenesis (process by which cartilage is developed).
Primary human mesenchymal stem cells (hMSCs) were purchased from Lonza (Walkersville, Md.) and expanded in Mesenchymal Stem Cell Growth Media (Lonza). Cells between passage 3 and 6 were used for the experiments.
Each compound was dissolved in DMSO as a 10 mM stock and used to prepare compound source plates. Serial dilution (1:3, 6-point dose-response curves from 2700 nM to 10 nM) and compound transfer was performed using the ECHO 550 (Labcyte, Sunnyvale, Calif.) into 96-well clear bottom assay plates (Greiner Bio-One) with appropriate DMSO backfill for a final DMSO concentration of 0.03%. hMSCs were plated at 20,000 cells/well in 250 μL/well Incomplete Chondrogenic Induction Medium (Lonza; DMEM, dexamethasone, ascorbate, insulin-transferrin-selenium [ITS supplement], gentamycin-amphotericin [GA-1000], sodium pyruvate, proline and L-glutamine). TGF-β3 (10 ng/mL) was used as a positive control for differentiation while negative control wells were treated with 75 nL DMSO for normalization and calculating EC50 values. Cells were incubated at 37° C. and 5% CO2 for 6 days. To image chondrogenic nodules, the cells were fixed using 4% formaldehyde (Electron Microscopy Sciences), and stained with 2 μg/mL Rhodamine B (Sigma-Aldrich) and 20 μM Nile Red (Sigma-Aldrich) [Johnson K., et. al, A Stem Cell-Based Approach to Cartilage Repair, Science, (2012). 336(6082), 717-721]. The nodules imaged (4 images per well at 4× magnification) by excitation at 531 nm and emission at 625 nm and quantified using the CellInsight CX5 (Thermo Scientific). Number of nodules in each well was normalized to the average of 3 DMSO treated wells on the same plate using Excel (Microsoft Inc.). The normalized averages (fold change over DMSO) of 3 replicate wells for each compound concentration were calculated. Due to solubility limitations of some of the compounds, curve fitting was incomplete leading to inaccurate EC50 determinations.
Using TGF-β3 as a positive control, the concentration of representative compounds required to induce 50% levels of chondrogenesis is reported. In addition, the maximum activity of each compound and the respective dose that each compound reached maximum chondrogenesis activity is reported.

[2] = test system: IL-6; assay: IL-6 inhibition in LPS-stimulated THP-1 monocytes (HTRF); assay type: cell-based, human; conditions: THP-1 cells; for EC50: 500 ng/mL LPS, 22 h, HTRF IL-6 readout, 10-point dose-response from 10 μM; for inhibition at 10 µM: LPS stimulated, given only where EC50 >10 μM, top concentration 10 μM, read-out: percentage in parentheses beside EC50 >10 (IL-6 inhibition)
In short: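 THP-1 cells serum-reduced (1% FBS, 24 h), then 5000 cells/well preincubated 2 h with compound (10-point 1:3 series from 10 μM, 0.1% DMSO) before 500 ng/mL LPS for 22 h at 37 °C. Secreted IL-6 quantified by HTRF 665/620 ratio; DMSO-normalised duplicates fitted to four-parameter EC50; above 10 μM, % inhibition at 10 μM given.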

[3] = chondrogenic nodules, TGF-β3 (10 ng/mL) positive control

Compound	EC50 [1] [nM]	EC50 ([2]; Homo sapiens) [nM]	EC50 [2] [nM]	Emax [1, 3] [%]	inhibition at 10 µM ([2]; Homo sapiens) [%]	Max. Activity as % TGF-β3 activity [1, 3] [%]	Conc (nM) of Max. activity ([1]; chondrogenic nodules, dose at which maximum chondrogenesis activity was reached) [nM]
CN1CCN(c2cccc3[nH]c(-c4n[nH]c5ncc(-c6cncc(NC(=O)C7CCCC7)c6)cc45)cc23)CC1 [Compound 222, N-(5-(3-(4-(4-Methylpiperazin-1-yl)-1H-indol-2-yl)-1H-pyrazolo[3,4-b]pyridin-5-yl)pyridin-3-yl)cyclopentanecarboxamide]	100	98		408			
CN(C)Cc1cncc(-c2cnc3[nH]nc(-c4cc5c(-c6cc(F)cc(CNS(C)(=O)=O)c6)cccc5[nH]4)c3c2)c1 [Compound 463, N-(3-(2-(5-(5-((Dimethylamino)methyl)pyridin-3-yl)-1H-pyrazolo[3,4-b]pyridin-3-yl)-1H-indol-4-yl)-5-fluorobenzyl)methane sulfonamide]	100	451		65			
Nc1cncc(-c2cnc3[nH]nc(-c4cc5c(-c6ccccn6)cccc5[nH]4)c3c2)c1 [Compound 121, 5-(3-(4-(Pyridin-2-yl)-1H-indol-2-yl)-1H-pyrazolo[3,4-b]pyridin-5-yl) pyridin-3-amine]	900	266		117			
O=C(CC1CCNCC1)Nc1cncc(-c2cnc3[nH]nc(-c4cc5c(-c6ccccn6)cccc5[nH]4)c3c2)c1 [Compound 595, 2-(Piperidin-4-yl)-N-(5-(3-(4-(pyridin-2-yl)-1H-indol-2-yl)-1H-pyrazolo[3,4-b]pyridin-5-yl)pyridin-3-yl)acetamide]		247		79			
CC(C)(C)CC(=O)Nc1cncc(-c2cnc3[nH]nc(-c4cc5c(-c6ccccn6)cccc5[nH]4)c3c2)c1 [Compound 133, 3,3-Dimethyl-N-(5-(3-(4-(pyridin-2-yl)-1H-indol-2-yl)-1H-pyrazolo[3,4-b]pyridin-5-yl)pyridin-3-yl)butanamide]	900	421		345			
O=C(Nc1cncc(-c2cnc3[nH]nc(-c4cc5c(-c6cccnc6)cccc5[nH]4)c3c2)c1)C1CCC1 [Compound 89, N-(5-(3-(4-(Pyridin-3-yl)-1H-indol-2-yl)-1H-pyrazolo[3,4-b]pyridin-5-yl)pyridin-3-yl)cyclobutanecarboxamide]		104		41			
c1cncc(-c2cnc3[nH]nc(-c4cc5c(-c6cccnc6)cccc5[nH]4)c3c2)c1 [Compound 74, 5-(Pyridin-3-yl)-3-(4-(pyridin-3-yl)-1H-indol-2-yl)-1H-pyrazolo[3,4-b]pyridine]		76		29			
CN(C)CCNc1cc(F)cc(-c2cccc3[nH]c(-c4n[nH]c5ncc(-c6cncc(NC(=O)C7CCC7)c6)cc45)cc23)c1 [Compound 443, N-(5-(3-(4-(3-((2-(Dimethylamino)ethyl)amino)-5-fluorophenyl)-1H-indol-2-yl)-1H-pyrazolo[3,4-b]pyridin-5-yl)pyridin-3-yl)cyclobutanecarboxamide]	100	> 10000		78	47.3		
Cc1ncc(-c2cnc3[nH]nc(-c4cc5ccccc5[nH]4)c3c2)n1C [Compound 655, 5-(1,2-Dimethyl-1H-imidazol-5-yl)-3-(1H-indol-2-yl)-1H-pyrazolo[3,4-b]pyridine]		4350		47			
CC(C)Nc1cncc(-c2cnc3[nH]nc(-c4cc5c(-c6cc(F)cc(NCCN(C)C)c6)cccc5[nH]4)c3c2)c1 [Compound 434, N^1-(3-Fluoro-5-(2-(5-(5-(isopropylamino)pyridin-3-yl)-1H-pyrazolo[3,4-b]pyridin-3-yl)-1H-indol-4-yl)phenyl)-N^2,N^2-dimethylethane-1,2-diamine]		692		56			
CN(C)CCNc1cc(F)cc(-c2cccc3[nH]c(-c4n[nH]c5ncc(-c6ccncc6)cc45)cc23)c1 [Compound 440]			15			31	2700
c1ccc(-c2cccc3[nH]c(-c4n[nH]c5ncc(-c6cncnc6)cc45)cc23)nc1 [Compound 143, 3-(4-(Pyridin-2-yl)-1H-indol-2-yl)-5-(pyrimidin-5-yl)-1H-pyrazolo[3,4-b]pyridine]		> 10000		25	37.6		
CC(C)(C)C(=O)Nc1cncc(-c2cnc3[nH]nc(-c4cc5c(-c6cccnc6)cccc5[nH]4)c3c2)c1 [Compound 78, N-(5-(3-(4-(Pyridin-3-yl)-1H-indol-2-yl)-1H-pyrazolo[3,4-b]pyridin-5-yl)pyridin-3-yl)pivalamide]	300	88		232			
CC(C)CC(=O)Nc1cncc(-c2cnc3[nH]nc(-c4cc5c(-c6cc(F)cc(NCCN(C)C)c6)cccc5[nH]4)c3c2)c1 [Compound 424, N-(5-(3-(4-(3-((2-(Dimethylamino)ethyl)amino)-5-fluorophenyl)-1H-indol-2-yl)-1H-pyrazolo[3,4-b]pyridin-5-yl)pyridin-3-yl)-3-methylbutanamide]		660		63			
CN(C)CCNc1cc(F)cc(-c2cccc3[nH]c(-c4n[nH]c5ncc(-c6cncc(N)c6)cc45)cc23)c1 [Compound 425, N^1-(3-(2-(5-(5-Aminopyridin-3-yl)-1H-pyrazolo[3,4-b]pyridin-3-yl)-1H-indol-4-yl)-5-fluorophenyl)-N^2,N^2-dimethylethane-1,2-diamine]	900	92		101			

Continued, in another order:

EC50 [1] [nM]	EC50 ([2]; Homo sapiens) [nM]	EC50 [2] [nM]	Compound	Emax [1, 3] [%]	inhibition at 10 µM ([2]; Homo sapiens) [%]	Max. Activity as % TGF-β3 activity [1, 3] [%]	Conc (nM) of Max. activity ([1]; chondrogenic nodules, dose at which maximum chondrogenesis activity was reached) [nM]
10	> 10000		Fc1ccc(-c2cccc3[nH]c(-c4n[nH]c5ncc(-c6cncc(CN7CCCCC7)c6)cc45)cc23)cc1 [Compound 36, 3-(4-(4-Fluorophenyl)-1H-indol-2-yl)-5-(5-(piperidin-1-ylmethyl)pyridin-3-yl)-1H-pyrazolo[3,4-b]pyridine]	67	45.5		
30	7150		FC1(F)CCN(Cc2cncc(-c3cnc4[nH]nc(-c5cc6c(-c7ccoc7)cccc6[nH]5)c4c3)c2)C1 [Compound 308, 5-(5-((3,3-Difluoropyrrolidin-1-yl)methyl)pyridin-3-yl)-3-(4-(furan-3-yl)-1H-indol-2-yl)-1H-pyrazolo[3,4-b]pyridine]	72			
10	212		Fc1ccc(-c2cccc3[nH]c(-c4n[nH]c5ncc(-c6cncc(CN7CCCC7)c6)cc45)cc23)cc1 [Compound 35, 3-(4-(4-Fluorophenyl)-1H-indol-2-yl)-5-(5-(pyrrolidin-1-ylmethyl)pyridin-3-yl)-1H-pyrazolo[3,4-b]pyridine]	160			
	276		Nc1cncc(-c2cnc3[nH]nc(-c4cc5c(-c6ccccc6F)cccc5[nH]4)c3c2)c1 [Compound 49, 5-(3-(4-(2-Fluorophenyl)-1H-indol-2-yl)-1H-pyrazolo[3,4-b]pyridin-5-yl) pyridin-3-amine]	134			
	607		FC1(F)CCN(Cc2cncc(-c3cnc4[nH]nc(-c5cc6c(-c7ccncc7)cccc6[nH]5)c4c3)c2)C1 [Compound 118, 5-(5-((3,3-Difluoropyrrolidin-1-yl)methyl)pyridin-3-yl)-3-(4-(pyridin-4-yl)-1H-indol-2-yl)-1H-pyrazolo[3,4-b]pyridine]	29			
10	1560		CC(C)Nc1cncc(-c2cnc3[nH]nc(-c4cc5c(-c6cccnc6)cccc5[nH]4)c3c2)c1 [Compound 81, N-Isopropyl-5-(3-(4-(pyridin-3-yl)-1H-indol-2-yl)-1H-pyrazolo[3,4-b]pyridin-5-yl)pyridin-3-amine]	264			
	2690		CCNCc1cncc(-c2cnc3[nH]nc(-c4cc5c(-c6ccccc6F)cccc5[nH]4)c3c2)c1 [Compound 52, N-((5-(3-(4-(2-Fluorophenyl)-1H-indol-2-yl)-1H-pyrazolo[3,4-b]pyridin-5-yl)pyridin-3-yl)methyl)ethanamine]	64			
